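Five compound concentrations were applied to cells in 96-well plates for 48 hours; endpoints were derived by simple linear interpolation of the resulting dose-response curve. GI50 = concentration required for 50% inhibition of growth.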 Active and inactive are the calls of the source. Rule as the data show it: active = GI50 up to about 1.1 µM and inactive = higher.
Tests used:
Test in all cases: NCI tumour cell line growth inhibition, 48 h
HOP-62 = tested on: HOP-62
IGROV-1 = tested on: IGROV-1
UACC-257 = tested on: UACC-257
HL-60 = tested on: HL-60
M14 = tested on: M14
DU-145 = tested on: DU-145
SK-OV-3 = tested on: SK-OV-3
OVCAR-5 = tested on: OVCAR-5
SF-539 = tested on: SF-539
MDA-N = tested on: MDA-N
MCF7 = tested on: MCF7
RXF 393 = tested on: RXF 393
HT-29 = tested on: HT-29
U-251 = tested on: U-251
KM12 = tested on: KM12
EKVX = tested on: EKVX
OVCAR-8 = tested on: OVCAR-8
SF-268 = tested on: SF-268
NCI-H460 = tested on: NCI-H460
ACHN = tested on: ACHN
T47D = tested on: T47D
SNB-75 = tested on: SNB-75
NCI-H226 = tested on: NCI-H226
MDA-MB-231 = tested on: MDA-MB-231
SN12C = tested on: SN12C
PC-3 = tested on: PC-3
NCI-H23 = tested on: NCI-H23
BT-549 = tested on: BT-549
SF-295 = tested on: SF-295
Malme-3M = tested on: Malme-3M
Hs-578T = tested on: Hs-578T
K562 = tested on: K562
MDA-MB-435 = tested on: MDA-MB-435
SR = tested on: SR
NCI-H522 = tested on: NCI-H522
HCT-116 = tested on: HCT-116
SK-MEL-5 = tested on: SK-MEL-5
OVCAR-4 = tested on: OVCAR-4
SK-MEL-28 = tested on: SK-MEL-28
SK-MEL-2 = tested on: SK-MEL-2
CAKI-1 = tested on: CAKI-1
HCC 2998 = tested on: HCC 2998
SW-620 = tested on: SW-620
UACC-62 = tested on: UACC-62
MOLT-4 = tested on: MOLT-4
RPMI-8226 = tested on: RPMI-8226
HCT-15 = tested on: HCT-15
786-0 = tested on: 786-0
HOP-92 = tested on: HOP-92
UO-31 = tested on: UO-31
NCI/ADR-RES = tested on: NCI/ADR-RES
LOX IMVI = tested on: LOX IMVI
SNB-19 = tested on: SNB-19
TK-10 = tested on: TK-10
COLO 205 = tested on: COLO 205
OVCAR-3 = tested on: OVCAR-3
A549 = tested on: A549
A498 = tested on: A498
CCRF-CEM = tested on: CCRF-CEM

SMILES: CC(C)(C)OC(=O)N1C(C2=COc3ccccc3O2)=COc2cccnc21
- GI50 (HOP-62): 1.85 µM (inactive)
- GI50 (IGROV-1): 1.62 µM (inactive)
- GI50 (UACC-257): 1.75 µM (inactive)
- GI50 (HL-60): 1.8 µM (inactive)
- GI50 (M14): 1.79 µM (inactive)
- GI50 (DU-145): 1.33 µM (inactive)
- GI50 (SK-OV-3): 1.81 µM (inactive)
- GI50 (OVCAR-5): 1.65 µM (inactive)
- GI50 (SF-539): 2 µM (inactive)
- GI50 (MDA-N): 1.99 µM (inactive)
- GI50 (MCF7): 1.66 µM (inactive)
- GI50 (RXF 393): 1.62 µM (inactive)
- GI50 (HT-29): 1.91 µM (inactive)
- GI50 (U-251): 1.73 µM (inactive)
- GI50 (KM12): 1.78 µM (inactive)
- GI50 (EKVX): 1.38 µM (inactive)
- GI50 (OVCAR-8): 1.9 µM (inactive)
- GI50 (SF-268): 1.5 µM (inactive)
- GI50 (NCI-H460): 1.74 µM (inactive)
- GI50 (ACHN): 1.65 µM (inactive)
- GI50 (T47D): 1.42 µM (inactive)
- GI50 (SNB-75): 15.7 µM (inactive)
- GI50 (NCI-H226): 1.71 µM (inactive)
- GI50 (MDA-MB-231): 1.81 µM (inactive)
- GI50 (SN12C): 1.71 µM (inactive)
- GI50 (PC-3): 1.96 µM (inactive)
- GI50 (NCI-H23): 1.61 µM (inactive)
- GI50 (BT-549): 1.59 µM (inactive)
- GI50 (SF-295): 1.95 µM (inactive)
- GI50 (Malme-3M): 1.45 µM (inactive)
- GI50 (Hs-578T): 3.64 µM (inactive)
- GI50 (K562): 1.99 µM (inactive)
- GI50 (MDA-MB-435): 1.74 µM (inactive)
- GI50 (SR): 2.18 µM (inactive)
- GI50 (NCI-H522): 1.61 µM (inactive)
- GI50 (HCT-116): 1.99 µM (inactive)
- GI50 (SK-MEL-5): 1.75 µM (inactive)
- GI50 (OVCAR-4): 1.6 µM (inactive)
- GI50 (SK-MEL-28): 1.74 µM (inactive)
- GI50 (SK-MEL-2): 1.94 µM (inactive)
- GI50 (CAKI-1): 2.13 µM (inactive)
- GI50 (HCC 2998): 1.69 µM (inactive)
- GI50 (SW-620): 2.01 µM (inactive)
- GI50 (UACC-62): 1.58 µM (inactive)
- GI50 (MOLT-4): 2.06 µM (inactive)
- GI50 (RPMI-8226): 1.55 µM (inactive)
- GI50 (HCT-15): 1.77 µM
- GI50 (786-0): 1.83 µM (inactive)
- GI50 (HOP-92): 1.25 µM (inactive)
- GI50 (UO-31): 1.64 µM (inactive)
- GI50 (NCI/ADR-RES): 2 µM (inactive)
- GI50 (LOX IMVI): 1.74 µM (inactive)
- GI50 (SNB-19): 2.04 µM (inactive)
- GI50 (TK-10): 2.75 µM (inactive)
- GI50 (COLO 205): 1.9 µM (inactive)
- GI50 (OVCAR-3): 1.72 µM (inactive)
- GI50 (A549): 1.98 µM (inactive)
- GI50 (A498): 1.71 µM (inactive)

SMILES: CC(=O)/C(=N\N=C(N)N)c1ccccc1
- GI50 (HOP-62): > 100 µM (inactive)
- GI50 (IGROV-1): > 100 µM (inactive)
- GI50 (UACC-257): > 100 µM (inactive)
- GI50 (M14): > 100 µM (inactive)
- GI50 (DU-145): > 100 µM (inactive)
- GI50 (SK-OV-3): > 100 µM (inactive)
- GI50 (OVCAR-5): > 100 µM (inactive)
- GI50 (SF-539): > 100 µM (inactive)
- GI50 (MDA-N): > 100 µM (inactive)
- GI50 (MCF7): > 100 µM (inactive)
- GI50 (RXF 393): > 100 µM (inactive)
- GI50 (HT-29): > 100 µM (inactive)
- GI50 (U-251): > 100 µM (inactive)
- GI50 (KM12): > 100 µM (inactive)
- GI50 (EKVX): 68.1 µM (inactive)
- GI50 (OVCAR-8): > 100 µM (inactive)
- GI50 (SF-268): > 100 µM (inactive)
- GI50 (NCI-H460): > 100 µM (inactive)
- GI50 (ACHN): > 100 µM (inactive)
- GI50 (T47D): 73.1 µM (inactive)
- GI50 (SNB-75): > 100 µM (inactive)
- GI50 (NCI-H226): > 100 µM (inactive)
- GI50 (MDA-MB-231): > 100 µM (inactive)
- GI50 (SN12C): > 100 µM (inactive)
- GI50 (PC-3): > 100 µM (inactive)
- GI50 (NCI-H23): > 100 µM (inactive)
- GI50 (BT-549): > 100 µM (inactive)
- GI50 (SF-295): > 100 µM (inactive)
- GI50 (Malme-3M): > 100 µM (inactive)
- GI50 (Hs-578T): > 100 µM (inactive)
- GI50 (K562): > 100 µM (inactive)
- GI50 (MDA-MB-435): > 100 µM (inactive)
- GI50 (SR): > 100 µM (inactive)
- GI50 (NCI-H522): 59.8 µM (inactive)
- GI50 (HCT-116): > 100 µM (inactive)
- GI50 (SK-MEL-5): > 100 µM (inactive)
- GI50 (OVCAR-4): > 100 µM (inactive)
- GI50 (SK-MEL-28): > 100 µM (inactive)
- GI50 (SK-MEL-2): > 100 µM (inactive)
- GI50 (CAKI-1): > 100 µM (inactive)
- GI50 (HCC 2998): 28.1 µM (inactive)
- GI50 (SW-620): > 100 µM (inactive)
- GI50 (UACC-62): > 100 µM (inactive)
- GI50 (MOLT-4): > 100 µM (inactive)
- GI50 (RPMI-8226): > 100 µM (inactive)
- GI50 (HCT-15): > 100 µM
- GI50 (786-0): > 100 µM (inactive)
- GI50 (HOP-92): > 100 µM (inactive)
- GI50 (UO-31): > 100 µM (inactive)
- GI50 (NCI/ADR-RES): > 100 µM (inactive)
- GI50 (LOX IMVI): > 100 µM (inactive)
- GI50 (SNB-19): > 100 µM (inactive)
- GI50 (TK-10): > 100 µM (inactive)
- GI50 (COLO 205): 35.1 µM (inactive)
- GI50 (OVCAR-3): > 100 µM (inactive)
- GI50 (A549): > 100 µM (inactive)
- GI50 (A498): > 100 µM (inactive)

SMILES: CN1CCC[N+](C)=C1c1ccccc1
- GI50 (HOP-62): > 100 µM (inactive)
- GI50 (IGROV-1): > 100 µM (inactive)
- GI50 (UACC-257): > 100 µM (inactive)
- GI50 (HL-60): > 100 µM (inactive)
- GI50 (M14): > 100 µM (inactive)
- GI50 (DU-145): > 100 µM (inactive)
- GI50 (SK-OV-3): > 100 µM (inactive)
- GI50 (OVCAR-5): > 100 µM (inactive)
- GI50 (SF-539): > 100 µM (inactive)
- GI50 (MDA-N): > 100 µM (inactive)
- GI50 (MCF7): > 100 µM (inactive)
- GI50 (RXF 393): > 100 µM (inactive)
- GI50 (HT-29): > 100 µM (inactive)
- GI50 (U-251): > 100 µM (inactive)
- GI50 (CCRF-CEM): > 100 µM (inactive)
- GI50 (KM12): > 100 µM (inactive)
- GI50 (EKVX): > 100 µM (inactive)
- GI50 (OVCAR-8): > 100 µM (inactive)
- GI50 (SF-268): > 100 µM (inactive)
- GI50 (NCI-H460): > 100 µM (inactive)
- GI50 (ACHN): > 100 µM (inactive)
- GI50 (T47D): > 100 µM (inactive)
- GI50 (SNB-75): > 100 µM (inactive)
- GI50 (NCI-H226): > 100 µM (inactive)
- GI50 (MDA-MB-231): > 100 µM (inactive)
- GI50 (SN12C): > 100 µM (inactive)
- GI50 (PC-3): > 100 µM (inactive)
- GI50 (NCI-H23): > 100 µM (inactive)
- GI50 (BT-549): > 100 µM (inactive)
- GI50 (SF-295): > 100 µM (inactive)
- GI50 (Malme-3M): > 100 µM (inactive)
- GI50 (Hs-578T): > 100 µM (inactive)
- GI50 (K562): > 100 µM (inactive)
- GI50 (MDA-MB-435): > 100 µM (inactive)
- GI50 (SR): > 100 µM (inactive)
- GI50 (NCI-H522): > 100 µM (inactive)
- GI50 (HCT-116): > 100 µM (inactive)
- GI50 (SK-MEL-5): > 100 µM (inactive)
- GI50 (OVCAR-4): > 100 µM (inactive)
- GI50 (SK-MEL-28): > 100 µM (inactive)
- GI50 (SK-MEL-2): > 100 µM (inactive)
- GI50 (CAKI-1): > 100 µM (inactive)
- GI50 (HCC 2998): > 100 µM (inactive)
- GI50 (SW-620): > 100 µM (inactive)
- GI50 (MOLT-4): > 100 µM (inactive)
- GI50 (RPMI-8226): > 100 µM (inactive)
- GI50 (HCT-15): > 100 µM
- GI50 (786-0): > 100 µM (inactive)
- GI50 (HOP-92): > 100 µM (inactive)
- GI50 (UO-31): > 100 µM (inactive)
- GI50 (NCI/ADR-RES): > 100 µM (inactive)
- GI50 (LOX IMVI): > 100 µM (inactive)
- GI50 (SNB-19): > 100 µM (inactive)
- GI50 (TK-10): > 100 µM (inactive)
- GI50 (COLO 205): > 100 µM (inactive)
- GI50 (OVCAR-3): > 100 µM (inactive)
- GI50 (A549): > 100 µM (inactive)
- GI50 (A498): 37.2 µM (inactive)

— ChEMBL document CHEMBL1201862, “PubChem BioAssay data set” (2004)
